Results from paper PMC8309059, “In Vitro Metabolism Study of Seongsanamide A in Human Liver Microsomes Using Non-Targeted Metabolomics and Feature-Based Molecular Networking” (Pharmaceutics, 2021).
“Also recorded” adds a separate entry of the source.

Assays:
rCYP3A5 = target: T1, rCYP3A5 (Homo sapiens, UniProt P20815); assay: Reaction phenotyping with recombinant cytochrome P450 isoforms: rCYP3A5; assay type: in vitro ADME; settings: 20 pmol/mL rP450, seongsanamide A 1 µM, pH 7.4, 5 min pre-incubation, 15 min at 37 °C with NADPH generating system, LC-MS/MS, n = 3
T1 construct: purchased Corning life sciences (Woburn, MA, USA)
Experimental: (§1) The incubation mixture consisted of 100 mM potassium phosphate buffer (pH 7.4), 20 pmol/mL rCYP1A2, 2A6, 2B6, 2C8, 2C9, 2C19, 2D6, 2E1, 2J2, 3A4 or 3A5 isoforms, and seongsanamide A (1 µM) in a final volume of 100 µL. After a 5 min pre-incubation period at 37 °C, reactions were initiated by the addition of an NADPH generating system and further incubated for 15 min at 37 °C. The reaction was terminated by placing the incubation tubes on ice and by immediately adding 50 µL of acetonitrile. After centrifugation, aliquots of the supernatant were injected into an LC-tandem mass spectrometer (MS/MS). Seongsanamide A and its four metabolites (M1~M4) were separated on a Kinetex XB-C18 column (100 × 2.1 mm, Phenomenex) and analyzed using a Shimadzu LC-MS 8040 MS/MS (Shimadzu, Kyoto, Japan) equipped with a Nexera X2 LC system (Shimadzu) coupled with an electrospray ionization (ESI) interface. LC elution conditions for the analysis of seongsanamide A and its four metabolites were: 10 to 90% B for 0–6 min, 90 to 10% B for 6–6.1 min, and 10% B for 6.1–10 min. Detection of the ions was performed by monitoring the transitions of m/z 836.5 → 565.3 for hydrolyzed seongsanamide A (M1), m/z 1021.5 → 836.5 for monohydroxy-seongsanamide A (M2), m/z 1037.5 → 836.5 for dihydroxy-seongsanamide A (M3), and m/z 1053.5 → 836.5 for tridihydroxy-seongsanamide A (M4). […]

CYP1A2 = target: T2, CYP1A2 (Homo sapiens, UniProt P05177); assay type: in vitro ADME
T2 construct: with slight modifications in the pooled HLMs; tissue XenoTech XTreme 200; host or cells: pooled human liver microsomes
T2 sequence (P05177 1-516): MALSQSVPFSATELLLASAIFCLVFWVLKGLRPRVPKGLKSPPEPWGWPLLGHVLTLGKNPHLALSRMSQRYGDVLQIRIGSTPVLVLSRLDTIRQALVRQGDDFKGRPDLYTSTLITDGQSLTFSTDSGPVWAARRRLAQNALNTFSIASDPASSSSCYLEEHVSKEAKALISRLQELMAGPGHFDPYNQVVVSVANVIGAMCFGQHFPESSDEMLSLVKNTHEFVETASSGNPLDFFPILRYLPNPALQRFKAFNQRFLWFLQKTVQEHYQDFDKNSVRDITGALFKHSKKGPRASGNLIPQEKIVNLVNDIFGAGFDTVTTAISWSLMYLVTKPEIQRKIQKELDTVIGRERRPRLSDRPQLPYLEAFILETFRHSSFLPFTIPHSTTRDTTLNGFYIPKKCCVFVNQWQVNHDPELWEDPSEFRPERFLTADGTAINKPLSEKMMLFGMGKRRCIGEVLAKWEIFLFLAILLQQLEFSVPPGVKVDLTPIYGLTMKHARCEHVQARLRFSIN
Experimental: (§2) The inhibitory potency of seongsanamide A was evaluated by a previously described method with slight modifications in the pooled HLMs. The microsomal incubation was conducted using two cocktail sets containing P450-specific probe substrates; A: phenacetin (CYP1A2), bupropion (CYP2B6), amodiaquine (CYP2C8), tolbutamide (CYP2C9), omeprazole (CYP2C19), and dextromethorphan (CYP2D6); B: coumarin (CYP2A6), chlorzoxazone (CYP2E1), and midazolam (CYP3A). After incubation for 10 min at 37 °C in HLMs in the presence or absence of seongsanamide A (0, 0.5, 2, 5, 20, and 50 µM), the reaction was quenched with cold acetonitrile containing trimipramine as an internal standard. After centrifugation, aliquots of the supernatants were analyzed using LC-MS/MS as described previously. IC50 (concentration of the inhibitor causing 50% inhibition of the original enzyme activity) values were calculated using WinNonlin (Pharsight, Mountain View, CA, USA).

CYP2E1 = target: T3, CYP2E1 (Homo sapiens, UniProt P05181); assay type: in vitro ADME
T3 construct: with slight modifications in the pooled HLMs; tissue XenoTech XTreme 200; host or cells: pooled human liver microsomes
Experimental: as §2

rCYP3A4 = target: T4, rCYP3A4 (Homo sapiens, UniProt P08684); assay: Reaction phenotyping with recombinant cytochrome P450 isoforms: rCYP3A4; assay type: in vitro ADME; settings: 20 pmol/mL rP450, seongsanamide A 1 µM, pH 7.4, 5 min pre-incubation, 15 min at 37 °C with NADPH generating system, LC-MS/MS, n = 3
T4 construct: purchased Corning life sciences (Woburn, MA, USA)
Experimental: as §1

[1] = system: bone marrow-derived mast cells; settings: even at 100 µM; cited from earlier work
Description: The genus Bacillus in the marine environment is known to produce structurally diverse peptides, including bicyclic peptides. Seongsanamide A (Figure 1) is one of four bioactive bicyclic depsipeptides isolated from Bacillus safensis KCTC 12796BP, which was obtained from a marine sponge collected from Seongsan on Jeju Island, Korea. It contains a unique isodityrosine moiety which is responsible for its bioactivity.

CYP2B6 = target: T5, CYP2B6 (Homo sapiens, UniProt P20813); assay: Inhibition of CYP2B6 activity (bupropion hydroxylation) in pooled human liver microsomes; assay type: in vitro ADME; settings: pooled HLMs, cocktail set A; inhibitor 0, 0.5, 2, 5, 20, 50 µM; 10 min at 37 °C; LC-MS/MS
T5 construct: with slight modifications in the pooled HLMs; tissue XenoTech XTreme 200; host or cells: pooled human liver microsomes
T5 sequence (P20813 1-491): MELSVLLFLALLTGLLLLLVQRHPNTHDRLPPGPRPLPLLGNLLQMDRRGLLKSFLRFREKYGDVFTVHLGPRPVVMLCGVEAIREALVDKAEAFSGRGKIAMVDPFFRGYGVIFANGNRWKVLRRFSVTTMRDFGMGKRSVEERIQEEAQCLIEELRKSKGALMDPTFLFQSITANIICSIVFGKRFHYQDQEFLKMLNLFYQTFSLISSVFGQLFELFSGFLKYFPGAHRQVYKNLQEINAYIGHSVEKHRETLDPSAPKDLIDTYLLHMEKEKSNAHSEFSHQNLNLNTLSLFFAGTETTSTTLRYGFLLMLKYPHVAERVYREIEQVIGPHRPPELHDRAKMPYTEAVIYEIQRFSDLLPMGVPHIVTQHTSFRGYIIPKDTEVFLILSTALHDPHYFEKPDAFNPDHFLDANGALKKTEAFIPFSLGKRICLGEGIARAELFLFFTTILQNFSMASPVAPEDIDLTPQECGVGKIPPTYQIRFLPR
Experimental: as §2

[2] = system: nine cytochrome P450 enzymes; assay: Inhibitory potential against nine cytochrome P450 isoforms in human liver microsomes (summary statements); assay type: in vitro ADME; settings: pooled HLMs
Experimental: as §2

CYP3A = settings: read-out: IC50 against CYP3A; cited from earlier work

T1 sequence (P20815 whole entry, canonical isoform): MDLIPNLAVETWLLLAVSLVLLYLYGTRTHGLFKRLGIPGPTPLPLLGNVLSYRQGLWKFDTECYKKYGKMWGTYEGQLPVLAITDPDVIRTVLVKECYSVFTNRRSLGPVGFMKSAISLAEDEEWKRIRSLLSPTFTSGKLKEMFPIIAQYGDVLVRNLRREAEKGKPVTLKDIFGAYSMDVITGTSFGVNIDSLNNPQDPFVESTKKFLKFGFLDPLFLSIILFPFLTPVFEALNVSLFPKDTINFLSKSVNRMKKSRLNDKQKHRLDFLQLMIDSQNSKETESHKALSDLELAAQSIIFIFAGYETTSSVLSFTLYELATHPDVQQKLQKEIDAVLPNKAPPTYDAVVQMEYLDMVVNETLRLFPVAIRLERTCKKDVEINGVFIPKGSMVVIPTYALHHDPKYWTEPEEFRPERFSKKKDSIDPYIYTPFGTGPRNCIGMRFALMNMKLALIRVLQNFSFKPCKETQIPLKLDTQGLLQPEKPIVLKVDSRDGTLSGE
T4 sequence (P08684 whole entry, canonical isoform): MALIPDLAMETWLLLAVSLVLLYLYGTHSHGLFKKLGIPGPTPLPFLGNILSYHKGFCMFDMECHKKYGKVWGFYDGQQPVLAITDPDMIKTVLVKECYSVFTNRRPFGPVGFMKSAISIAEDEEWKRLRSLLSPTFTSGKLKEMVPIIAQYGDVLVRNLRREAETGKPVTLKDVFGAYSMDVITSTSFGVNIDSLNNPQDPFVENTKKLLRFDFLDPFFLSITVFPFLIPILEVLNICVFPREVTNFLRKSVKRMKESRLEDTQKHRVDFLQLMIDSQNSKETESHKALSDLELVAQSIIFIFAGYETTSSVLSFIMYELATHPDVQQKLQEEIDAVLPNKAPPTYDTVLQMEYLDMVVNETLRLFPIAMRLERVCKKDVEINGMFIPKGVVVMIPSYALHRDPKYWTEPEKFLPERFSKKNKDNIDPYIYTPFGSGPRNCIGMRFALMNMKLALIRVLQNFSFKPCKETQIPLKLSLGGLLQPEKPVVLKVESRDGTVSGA
T3 sequence (P05181 whole entry): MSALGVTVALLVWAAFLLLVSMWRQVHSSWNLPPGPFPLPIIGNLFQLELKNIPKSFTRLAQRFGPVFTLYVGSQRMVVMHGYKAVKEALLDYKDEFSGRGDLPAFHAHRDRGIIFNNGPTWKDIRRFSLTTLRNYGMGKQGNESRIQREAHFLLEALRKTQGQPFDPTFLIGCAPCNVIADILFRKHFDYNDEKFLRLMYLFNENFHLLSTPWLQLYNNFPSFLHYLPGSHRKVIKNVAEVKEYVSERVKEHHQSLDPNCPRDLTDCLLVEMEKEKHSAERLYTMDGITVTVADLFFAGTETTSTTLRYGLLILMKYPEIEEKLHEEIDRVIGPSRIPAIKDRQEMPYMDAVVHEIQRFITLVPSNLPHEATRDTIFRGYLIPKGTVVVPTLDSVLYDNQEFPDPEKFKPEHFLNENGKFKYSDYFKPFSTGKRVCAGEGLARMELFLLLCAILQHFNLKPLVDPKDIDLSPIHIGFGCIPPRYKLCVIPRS

Row | SMILES | Role of CYP3A5 in formation of metabolites (rCYP3A5) | IC50, phenacetin O-deethylation (CYP1A2) (CYP1A2) [µM] | IC50, chlorzoxazone 6-hydroxylation (CYP2E1) (CYP2E1) [µM] | Role of CYP3A4 in formation of metabolites M1-M4 (rCYP3A4) | Cytotoxicity [1] | IC50 (CYP2B6) [µM] | IC50 at 10 min ([2]; human, pooled human liver microsomes, all nine isoforms taken together, read-out: IC50 against the nine cytochrome P450 isoforms (summary bound)) [µM] | Effect on the activities of the other P450 isoforms ([2]; seongsanamide A at 50 µM) | IC50 (CYP3A) [µM]
1 | CCC(=O)N[C@@H](CC(C)C)C(=O)N[C@H](C)C(=O)N[C@@H]1Cc2ccc(cc2)Oc2cc(ccc2O)C[C@@H]2NC(=O)[C@H]([C@@H](C)CC)NC(=O)[C@H](CC(C)C)NC(=O)[C@@H](CC(C)C)NC(=O)[C@@H](NC1=O)[C@@H](C)OC2=O [Seongsanamide A] | major metabolic enzymes; also recorded: CYP3A5 was involved in the formation of mono-hydroxyseongsanamide A (M2) | >50 | >50 | major metabolic enzymes; also recorded: CYP3A4 played a major role in the formation of M1, M2, M3, and M4 | without significant cytotoxicity | 21.9 to 25.5 | > 10 | did not affect | –
2 | CC(C)(C)NC(=O)[C@@H]1C[C@@H]2CCCC[C@@H]2CN1C[C@@H](O)[C@H](Cc1ccccc1)NC(=O)[C@H](CC(N)=O)NC(=O)c1ccc2ccccc2n1 [saquinavir] | – | – | – | – | – | – | – | – | 2.14
